Data: patent US7432056B2, “Biallelic markers derived from genomic regions carrying genes involved in arachidonic acid metabolism” (Serono Genetics Institute S.A., priority 1999, dated 2008)

Assay: Hepatotoxicity monitored by serum alanine aminotransferase (ALT) level in a clinical study of zileuton
Type: in vivo, human
Source text: In another preferred embodiment, the trait considered was a side effect upon drug treatment; the study involved two populations derived from a clinical study of the anti-asthmatic drug zileuton. The case population was composed of asthmatic individuals treated with Zileuton showing zileuton-associated hepatotoxicity monitored by the serum level of alanine aminotransferase (ALT) and the control population was composed of asthmatic individuals treated with zileuton and having no increased serum level of ALT. Inclusion criteria and association between the biallelic markers of the present invention and zileuton-associated hepatotoxicity are further described below in IV.E. Association of Biallelic Markers of the Invention with Hepatoxicity to Anti-Asthma Drug Zileuton and in Example 5, Association between Side Effects upon Treatment with the Anti-Asthmatic Drug Zileuton (Zyflo™) and the Biallelic Markers of the 12-lipoxygenase Gene.
Zileuton (Zyflo™) is an active inhibitor of 5-lipoxygenase, the enzyme that catalyzes the formation of leukotrienes from arachidonic acid, indicated for prophylaxis and chronic treatment of asthma. […] The ALT test (serum level of alanine aminotransferase) was used, which is considered the most sensitive indicator of liver injury.
The side effect examined in this study was the hepatotoxicity experienced by asthmatic individuals as a result of their treatment with Zileuton as part of a clinical study. […] Hepatotoxicity was monitored by measuring the serum levels of alanine aminotransferase (ALT), which is a sensitive indicator of liver cell damage.
As mentioned above, an association study is more informative if the case-control populations present extreme phenotypes. Therefore, the asthmatic individuals, which were selected for the side effect positive trait (ALT+), corresponded to 89 individuals that presented at least 3 times the upper limit of normal (ULN) level of ALT. On the other side, the asthmatic individuals that were selected for the side effect negative trait (ALT−) corresponded to 208 individuals that presented less than 1×ULN of ALT. ALT+ and ALT− populations corresponded to 4% and 35% respectively of the total asthmatic individuals that participated in this study.

**Q.** With CC(c1cc2ccccc2s1)N(O)C(N)=O (stereo not shown) [Zileuton] as the molecule, how does the “asthmatic individuals that did not experience Zileuton-associated ALT increase compared to ALT levels prior to zileuton intake” value (asthmatic individuals treated with zileuton in a clinical study, serum ALT) read?
**A.** More than 90%

**Q.** And the “ALT+ population (at least 3 times the upper limit of normal level of ALT) as share of total asthmatic individuals in the study” value (asthmatic individuals treated with zileuton, 89 individuals)?
**A.** 4%

**Q.** And the “ALT- population (less than 1xULN of ALT) as share of total asthmatic individuals in the study” value (asthmatic individuals treated with zileuton, 208 individuals)?
**A.** 35%

**Q.** What about the “liver function abnormalities in zileuton-treated patients” value (elevations of liver function tests during treatment, ALT test) of the same molecule?
**A.** A minority of zileuton-treated patients develop liver function abnormalities
